Experimental data: patent publication US20250163104A1, “MACROCYCLIC IMMUNOMODULATORS” (priority 2021, published 2025)
Where a SMILES comes first, the peptide text is derived from it. Bridges are numbered along the chain shown (N, C = ends). [ ]: non-standard residue; d: D form. The star is where a group is joined. Phe(2-CF3) = N[C@@H](Cc1ccccc1C(F)(F)F)C(=O)O; Bip = N[C@@H](Cc1ccc(-c2ccccc2)cc1)C(=O)O; Phe(3-Cl) = N[C@@H](Cc1cccc(Cl)c1)C(=O)O; Phe(2-CN) = N#Cc1ccccc1C[C@H](N)C(=O)O; Phe(2-F) = N[C@@H](Cc1ccccc1F)C(=O)O; Phe(2-Me) = Cc1ccccc1C[C@H](N)C(=O)O; 4Pal = N[C@@H](Cc1ccncc1)C(=O)O; Cha = N[C@@H](CC1CCCCC1)C(=O)O; Carboxymethyl = O=C(O)C*; Orn = NCCC[C@H](N)C(=O)O; Dab = NCC[C@H](N)C(=O)O; Dap = NC[C@H](N)C(=O)O

These compounds were tested against T1, human PD-1 / PD-L1-Ig binding on Jurkat cell line over-expressing human PD-1 (Jurkat-PD-1) (Homo sapiens, UniProt Q15116) (assay: Jurkat-PD-1 Cell Binding High-Content Screening Assay (CBA)). Conditions: Jurkat-PD-1 cells, PE-labeled PD-L1-Ig 20 nM final; read-out: Jurkat HPD1_PDL1 IC50.
T1 construct: expressed in transfected cells; host or cells: Jurkat
T1 sequence (Q15116 25-288): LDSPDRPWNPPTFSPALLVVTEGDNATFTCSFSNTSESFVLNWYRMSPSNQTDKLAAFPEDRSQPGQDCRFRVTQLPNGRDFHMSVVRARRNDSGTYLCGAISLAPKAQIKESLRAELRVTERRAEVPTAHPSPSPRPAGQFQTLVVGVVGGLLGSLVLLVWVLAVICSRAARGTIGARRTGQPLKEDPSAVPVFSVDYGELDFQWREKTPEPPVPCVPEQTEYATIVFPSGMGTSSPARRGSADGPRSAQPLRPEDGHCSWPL
Format: cell-based
Procedure, shortened: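 Cell-bound PE-labeled PD-L1-Ig (20 nM final, 1 h) measured by high-content imaging after fixation and Hoechst 33342 counterstain. Compound was applied first for 2 h at 37° C. to Jurkat cells over-expressing human PD-1 in DMEM with 10% FCS.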

Compound	IC50 [µM]
Cc1ccccc1C[C@@H]1NC(=O)[C@H](CCN)NC(=O)[C@@H](CC(C)C)NC(=O)[C@H](CCCN)NC(=O)[C@H](CCC(=O)O)NC(=O)[C@H](Cc2ccc(-c3ccccc3)cc2)NC(=O)[C@H](C(C)C)NC(=O)[C@H](Cc2c[nH]c3ccccc23)NC(=O)[C@H](CC(=O)O)NC(=O)[C@H](Cc2ccc(OCC(=O)O)cc2)NC(=O)[C@H](CN)NC(=O)CSC[C@@H](C(=O)N[C@@H](C)C(N)=O)NC(=O)[C@H]([C@@H](C)O)NC(=O)[C@H](C(C)C)NC1=O [Compound 1484] ({CH2CO}-[Dap]Y(Carboxymethyl)DWV[Bip]E[Orn][dL][Dab][Phe(2-Me)]VTCA-NH2; thioether N-14)	0.0123
CC(C)C[C@H]1NC(=O)[C@H](CCCN)NC(=O)[C@H](CCC(=O)O)NC(=O)[C@H](Cc2ccc(-c3ccccc3)cc2)NC(=O)[C@H](C(C)C)NC(=O)[C@H](Cc2c[nH]c3ccccc23)NC(=O)[C@H](CC(=O)O)NC(=O)[C@H](Cc2ccc(OCC(=O)O)cc2)NC(=O)[C@H](CN)NC(=O)CSC[C@@H](C(=O)N[C@@H](C)C(N)=O)NC(=O)[C@H]([C@@H](C)O)NC(=O)[C@H](C(C)C)NC(=O)[C@H](Cc2ccccc2F)NC(=O)[C@H](CCN)NC1=O [Compound 1485] ({CH2CO}-[Dap]Y(Carboxymethyl)DWV[Bip]E[Orn][dL][Dab][Phe(2-F)]VTCA-NH2; thioether N-14)	0.0155
CC(C)C[C@H]1NC(=O)[C@H](CCCN)NC(=O)[C@H](CCC(=O)O)NC(=O)[C@H](Cc2ccc(-c3ccccc3)cc2)NC(=O)[C@H](C(C)C)NC(=O)[C@H](Cc2c[nH]c3ccccc23)NC(=O)[C@H](CC(=O)O)NC(=O)[C@H](Cc2ccc(OCC(=O)O)cc2)NC(=O)[C@H](CN)NC(=O)CSC[C@@H](C(=O)N[C@@H](C)C(N)=O)NC(=O)[C@H]([C@@H](C)O)NC(=O)[C@H](C(C)C)NC(=O)[C@H](Cc2ccccc2C#N)NC(=O)[C@H](CCN)NC1=O [Compound 1487] ({CH2CO}-[Dap]Y(Carboxymethyl)DWV[Bip]E[Orn][dL][Dab][Phe(2-CN)]VTCA-NH2; thioether N-14)	0.268
CC(C)C[C@H]1NC(=O)[C@H](CCCN)NC(=O)[C@H](CCC(=O)O)NC(=O)[C@H](Cc2ccc(-c3ccccc3)cc2)NC(=O)[C@H](C(C)C)NC(=O)[C@H](Cc2cccc(Cl)c2)NC(=O)[C@H](CC(=O)O)NC(=O)[C@H](Cc2ccc(O)cc2)NC(=O)[C@H](Cc2ccncc2)NC(=O)CSC[C@@H](C(=O)N[C@@H](C)C(N)=O)NC(=O)[C@H]([C@@H](C)O)NC(=O)[C@H](C(C)C)NC(=O)[C@H](CC2CCCCC2)NC(=O)[C@H](CCN)NC1=O [Compound 1489]	0.0136
CC(C)C[C@H]1NC(=O)[C@H](CCCN)NC(=O)[C@H](CCC(=O)O)NC(=O)[C@H](Cc2ccc(-c3ccccc3)cc2)NC(=O)[C@H](C(C)C)NC(=O)[C@H](Cc2cccc(Cl)c2)NC(=O)[C@H](CC(=O)O)NC(=O)[C@H](Cc2ccc(OCC(=O)O)cc2)NC(=O)[C@H](Cc2ccncc2)NC(=O)CSC[C@@H](C(=O)N[C@@H](C)C(N)=O)NC(=O)[C@H]([C@@H](C)O)NC(=O)[C@H](C(C)C)NC(=O)[C@H](CC2CCCCC2)NC(=O)[C@H](CCN)NC1=O [Compound 1491]	0.0226
CC(C)C[C@H]1NC(=O)[C@H](CCCN)NC(=O)[C@H](CCC(=O)O)NC(=O)[C@H](Cc2ccc(-c3ccccc3)cc2)NC(=O)[C@H](C(C)C)NC(=O)[C@H](Cc2cccc(Cl)c2)NC(=O)[C@H](CC(=O)O)NC(=O)[C@H](Cc2ccc(C(=O)O)cc2)NC(=O)[C@H](Cc2ccc(OCC(=O)O)cc2)NC(=O)CSC[C@@H](C(=O)N[C@@H](C)C(N)=O)NC(=O)[C@H]([C@@H](C)O)NC(=O)[C@H](C(C)C)NC(=O)[C@H](CC2CCCCC2)NC(=O)[C@H](CCN)NC1=O [Compound 1492]	0.0274
CC(C)C[C@H]1NC(=O)[C@H](CCCN)NC(=O)[C@H](CCC(=O)O)NC(=O)[C@H](Cc2ccc(-c3ccccc3)cc2)NC(=O)[C@H](C(C)C)NC(=O)[C@H](Cc2cccc(Cl)c2)NC(=O)[C@H](CC(=O)O)NC(=O)[C@H](Cc2ccc(OCC(=O)O)cc2)NC(=O)[C@H](CN)NC(=O)CSC[C@@H](C(=O)N[C@@H](C)C(N)=O)NC(=O)[C@H]([C@@H](C)O)NC(=O)[C@H](C(C)C)NC(=O)[C@H](CC2CCCCC2)NC(=O)[C@H](CCN)NC1=O [Compound 1495]	0.0058

Second part, the compound after the results:

IC50 [µM]	Compound
0.0437	CC(C)C[C@H]1NC(=O)[C@H](CCCN)NC(=O)[C@H](CCC(=O)O)NC(=O)[C@H](Cc2ccc(-c3ccccc3)cc2)NC(=O)[C@H](C(C)C)NC(=O)[C@H](Cc2c[nH]c3ccccc23)NC(=O)[C@H](CC(=O)O)NC(=O)[C@H](Cc2ccc(OCC(=O)O)cc2)NC(=O)[C@H](CN)NC(=O)CSC[C@@H](C(=O)N[C@@H](C)C(N)=O)NC(=O)[C@H]([C@@H](C)O)NC(=O)[C@H](C(C)C)NC(=O)[C@H](Cc2ccccc2C(F)(F)F)NC(=O)[C@H](CCN)NC1=O [Compound 1486] ({CH2CO}-[Dap]Y(Carboxymethyl)DWV[Bip]E[Orn][dL][Dab][Phe(2-CF3)]VTCA-NH2; thioether N-14)
0.0106	CC(C)C[C@H]1NC(=O)[C@H](CCCN)NC(=O)[C@H](CCC(=O)O)NC(=O)[C@H](Cc2ccc(-c3ccccc3)cc2)NC(=O)[C@H](C(C)C)NC(=O)[C@H](Cc2cccc(Cl)c2)NC(=O)[C@H](CC(=O)O)NC(=O)[C@H](Cc2ccc(OCC(=O)O)cc2)NC(=O)[C@H](Cc2ccccc2)NC(=O)CSC[C@@H](C(=O)N[C@@H](C)C(N)=O)NC(=O)[C@H]([C@@H](C)O)NC(=O)[C@H](C(C)C)NC(=O)[C@H](CC2CCCCC2)NC(=O)[C@H](CCN)NC1=O [Compound 1488] ({CH2CO}-FY(Carboxymethyl)D[Phe(3-Cl)]V[Bip]E[Orn][dL][Dab][Cha]VTCA-NH2; thioether N-14)
0.0202	CC(C)C[C@H]1NC(=O)[C@H](CCCN)NC(=O)[C@H](CCC(=O)O)NC(=O)[C@H](Cc2ccc(-c3ccccc3)cc2)NC(=O)[C@H](C(C)C)NC(=O)[C@H](Cc2cccc(Cl)c2)NC(=O)[C@H](CC(=O)O)NC(=O)[C@H](Cc2ccc(OCC(=O)O)cc2)NC(=O)[C@H](Cc2ccc(OCC(=O)O)cc2)NC(=O)CSC[C@@H](C(=O)N[C@@H](C)C(N)=O)NC(=O)[C@H]([C@@H](C)O)NC(=O)[C@H](C(C)C)NC(=O)[C@H](CC2CCCCC2)NC(=O)[C@H](CCN)NC1=O [Compound 1490]
0.0108	CC(C)C[C@H]1NC(=O)[C@H](CCCN)NC(=O)[C@H](CCC(=O)O)NC(=O)[C@H](Cc2ccc(-c3ccccc3)cc2)NC(=O)[C@H](C(C)C)NC(=O)[C@H](Cc2cccc(Cl)c2)NC(=O)[C@H](CC(=O)O)NC(=O)[C@H](Cc2ccncc2)NC(=O)[C@H](Cc2ccc(OCC(=O)O)cc2)NC(=O)CSC[C@@H](C(=O)N[C@@H](C)C(N)=O)NC(=O)[C@H]([C@@H](C)O)NC(=O)[C@H](C(C)C)NC(=O)[C@H](CC2CCCCC2)NC(=O)[C@H](CCN)NC1=O [Compound 1493] ({CH2CO}-Y(Carboxymethyl)[4Pal]D[Phe(3-Cl)]V[Bip]E[Orn][dL][Dab][Cha]VTCA-NH2; thioether N-14)
0.0138	CC(C)C[C@H]1NC(=O)[C@H](CCCN)NC(=O)[C@H](CCC(=O)O)NC(=O)[C@H](Cc2ccc(-c3ccccc3)cc2)NC(=O)[C@H](C(C)C)NC(=O)[C@H](Cc2cccc(Cl)c2)NC(=O)[C@H](CC(=O)O)NC(=O)[C@H](Cc2ccc(O)cc2)NC(=O)[C@H](CC(N)=O)NC(=O)CSC[C@@H](C(=O)N[C@@H](C)C(N)=O)NC(=O)[C@H]([C@@H](C)O)NC(=O)[C@H](C(C)C)NC(=O)[C@H](CC2CCCCC2)NC(=O)[C@H](CCN)NC1=O [Compound 1494] ({CH2CO}-NYD[Phe(3-Cl)]V[Bip]E[Orn][dL][Dab][Cha]VTCA-NH2; thioether N-14)
